Experimental data: patent US4310523A, “Combined antiestrogens and antigonadotropically effective antiandrogens for the prophylaxis and therapy of hyperplasia of the prostate” (priority 1978, dated 1982)

Tests used:
prostate hyperplasia [1] = assay: Prostate hyperplasia in younger dogs treated with estrogen or estrogen/androgen mixture, additional treatment with anti-androgen; assay type: in vivo, dog; settings: additional cyproterone acetate
Source text: Also in the dog, there is a proliferation primarily of the fibromuscular portion of the prostate. It is also possible to cause the aspects of the disease in younger dogs by treatment with an estrogen or an estrogen/androgen mixture.

[2] = system: Estradiol-stimulated Uterus Weight of Infantile Mice; assay: Antiestrogenic effect on the estradiol-stimulated uterus weight of infantile mice (uterus growth test); assay type: in vivo; settings: for Effect on uterus weight of the estradiol-stimulated uterus of infantile mice, in words: s.c., 0.3-300 μg/animal/day
Experimental: Daily for 3 days 0.03 μg of estradiol and measured dosages of the antiestrogen to be tested are simultaneously applied to castrated or infantile mice subcutaneously. The animals are killed on the fourth day, and the uteri are removed and weighed without contents (See Table 1). The same test is carried out on castrated or infantile rats using 0.1 μg of estradiol.
Antiestrogenic Effect of Ru-16117 and Tamoxifen on the Estradiol-stimulate
d Uterus Weight of Infantile Mice
(Mode of Administration: Subcutaneous - Number of Animals per Group:
Ru-16117, Tamoxifen and Estradiol are dissolved in a medium consisting of
benzylbenzoate/castor oil (1:10)

prostate hyperplasia [3] = settings: cited from earlier work
hyperplastic prostate = settings: one-year study, patients; cited from earlier work
[4] = system: vaginal epithelium (hornification); assay: Vaginal swab test of the castrated rat; assay type: in vivo; settings: subcutaneous, 1 mg
Experimental: One example of compounds having possible antiestrogenic effects which are not included within the scope of this invention are those disclosed in U.S. Pat. No. 4,055,641 to Benson et al which are primarily anabolic androgens. For example, the compound preferred by Benson et al, 3,17-dioxoandrost-4-ene-19-al (Column 3, lines 67-68) was tested in the vaginal swab test of the castrated rat after subcutaneous application in a dosage of 1 mg. […] In addition, the compounds of Benson et al were tested on intact (not castrated) male animals or probands. These estrogenous substances acted on the prostate by removal of androgen, not by displacing estrogen as for the antiestrogens used in this invention. The difference between the antiestrogens acting through an antagonism to estrogen receptors, i.e., those used in this invention, and those which are primariy androgenic or gestogenic in activity with some simultaneous antiestrogenic effect is also discussed in Nishino, supra.

[5] = 3 μg/animal/day s.c. + 0.03 μg estradiol/animal/day, 3 days
[6] = 3 μg/animal/day s.c. + 0.03 μg estradiol/animal/day, 3 days, 8 animals per group
[7] = 30 μg/animal/day s.c. + 0.03 μg estradiol/animal/day, 3 days
[8] = 30 μg/animal/day s.c. + 0.03 μg estradiol/animal/day, 3 days, 8 animals per group

CC(=O)O[C@]1(C(C)=O)CC[C@H]2[C@@H]3C=C(Cl)C4=CC(=O)[C@@H]5C[C@@H]5[C@]4(C)[C@H]3CC[C@@]21C [cyproterone acetate, 6-chloro-17-hydroxy-1α,2α-methylenepregna-4,6-diene-3,20-dione acetate]
Effect on gland parenchyma (prostate hyperplasia [1]): total atrophy of the gland parenchyma
Effect on proliferation of the interstitium (prostate hyperplasia [1]): proliferation of the interstitium is not affected

CC/C(=C(\c1ccccc1)c1ccc(OCCN(C)C)cc1)c1ccccc1 [Tamoxifen, (Z)-2-[p-(1,2-diphenyl-1-butenyl)-phenoxy]-N,N-dimethylethylamine]
% Inhibition, Decrease of Uterus Weight in Comparison to Single Estradiol Administration [2, 5]: 11%
Uterus Weight, Average Value ± Standard Deviation [2, 6]: 57.5 ± 2.1 mg
% Inhibition, Decrease of Uterus Weight in Comparison to Single Estradiol Administration [2, 7]: 40%
Uterus Weight, Average Value ± Standard Deviation [2, 8]: 43.3 ± 3.1 mg
% Inhibition, Decrease of Uterus Weight in Comparison to Single Estradiol Administration ([2]; 100 μg/animal/day s.c. + 0.03 μg estradiol/animal/day, 3 days): 46%
Uterus Weight, Average Value ± Standard Deviation ([2]; 100 μg/animal/day s.c. + 0.03 μg estradiol/animal/day, 3 days, 8 animals per group): 39.7 ± 3.1 mg
% Inhibition, Decrease of Uterus Weight in Comparison to Single Estradiol Administration ([2]; 300 μg/animal/day s.c. + 0.03 μg estradiol/animal/day, 3 days): 58%
Uterus Weight, Average Value ± Standard Deviation ([2]; 300 μg/animal/day s.c. + 0.03 μg estradiol/animal/day, 3 days, 8 animals per group): 34.1 ± 4.3 mg
Effect on uterus weight of the estradiol-stimulated uterus of infantile mice, in words ([2]; 3 days): pronounced dosagedependent decrease in uterus weight

C[C@]12CC[C@@H]3c4ccc(O)cc4CC[C@H]3[C@@H]1CC[C@@H]2O [Estradiol]
Uterus Weight, Average Value ± Standard Deviation ([2]; single administration of 0.03 μg estradiol once daily over 3 days, s.c. (untreated control 11.8 ± 1.3)): 63.9 ± 6.2 mg

C#C[C@]1(O)CC[C@H]2[C@@H]3CCc4cc(O)ccc4[C@H]3[C@H](OC)C[C@@]21C [Ru-16117, 11α-methoxy-17α-ethynyl-1,3,5(10)-estratriene-3,17β-diol]
% Inhibition, Decrease of Uterus Weight in Comparison to Single Estradiol Administration ([2]; 0.3 μg/animal/day s.c. + 0.03 μg estradiol/animal/day, 3 days): 8%
Uterus Weight, Average Value ± Standard Deviation ([2]; 0.3 μg/animal/day s.c. + 0.03 μg estradiol/animal/day, 3 days, 8 animals per group): 60.0 ± 2.4 mg
% Inhibition, Decrease of Uterus Weight in Comparison to Single Estradiol Administration [2, 5]: 27%
Uterus Weight, Average Value ± Standard Deviation [2, 6]: 49.8 ± 1.6 mg
% Inhibition, Decrease of Uterus Weight in Comparison to Single Estradiol Administration [2, 7]: 58%
Uterus Weight, Average Value ± Standard Deviation [2, 8]: 34.3 ± 2.3 mg
Effectiveness compared with Tamoxifen ([2]; "somewhat more effective than Tamoxifen"): somewhat more
Effect on uterus weight of the estradiol-stimulated uterus of infantile mice, in words ([2]; 3 days): pronounced dosagedependent decrease in uterus weight

CCCCCC(=O)O[C@]1(C(C)=O)CC[C@H]2[C@@H]3CCC4=CC(=O)CC[C@@H]4[C@H]3CC[C@@]21C [gestonorone caproate]
Maximum flow value (flow of urine per unit time) (prostate hyperplasia [3]; in vivo): improved
Reduction of the size of the adenoma (prostate hyperplasia [3]; in vivo): A marked reduction of the size of the adenoma, however, also cannot be achieved
Miction period (prostate hyperplasia [3]; prolonged prior to treatment): markedly shortened
Effect compared with phyto-preparations (prostate hyperplasia [3]; prostate hyperplasia): a better effect

CC[C@H](CC[C@@H](C)[C@H]1CC[C@H]2[C@@H]3CC=C4C[C@@H](O)CC[C@]4(C)[C@H]3CC[C@]12C)C(C)C [β-sitosterol]
Effectiveness in prostate hyperplasia (hyperplastic prostate): ineffective

C[C@]12CC[C@H]3[C@@H](CCC4=CC(=O)CC[C@@]43C=O)[C@@H]1CCC2=O [3,17-dioxoandrost-4-ene-19-al]
Estrogenous effect [4]: strongly estrogenous effect
Hornification of the vaginal epithelium [4]: Hornification of the vaginal epitelium took place
